Patent US4761483A, “Chloro-substituted ketone imidazole derivatives” (G. D. Searle & Co., priority 1985, dated 1988)
Where “and” joins values, the source holds several entries; their conditions need not be identical. Equal entries are not always repeated. Where two headings read alike, the source gives them in different places.

Tests used:
[1] = test system: Propionibacterium acnes NCTC 7337; experiment: anti-anaerobic activity, MIC (procedures of Example 13); type: cell-based; conditions: Cutibacterium acnes, NCTC7337, procedures of Example 13 (there mg/L)
[2] = test system: Peptococcus prevotti ATCC 9321; experiment: as above; type: cell-based
[3] = test system: Peptococcus magnus ATCC 29328; experiment: as above; type: cell-based; conditions: Finegoldia magna, ATCC29328
[4] = test system: B. fragilis MZ-R ATCC 11295; experiment: anti-anaerobic activity, MIC/MBC in 96 well microtitre plates, strain D; type: cell-based, Bacteroides fragilis
Experimental: The screening panel utilized in the Example consisted of 5 strains of Bacteroides fragilis. All assays were carried out in 96 well microtitre plates. If an isolate was obtained from either a culture collection or clinical source, the isolate was immediately innoculated into Wilkens-Chalgren broth (Oxoid) and incubated at 37° C. in an anaerobic chamber in an atmosphere of 85% nitrogen, 10% carbon dioxide, and 5% hydrogen for 48 hours. At the end of this time, the viable count was about […] broth. A 1 ml aliquot of each culture was placed in an ampoule and quick frozen in acetone-dry ice mixture and stored in liquid nitrogen. When an inoculum was utilized in an assay, one of the ampoules was thawed and diluted with fresh broth to yield a suspension having a count of 5×10^5 organisms/ml. A 100 μl aliquot of the suspension was inoculated into each well of the microtitre plate. A 2 mg sample of the test compound wa dissolved in 0.2 ml of a suitable solvent such as dimethylsulfoxide, polyethylene glycol 200 or methanol. The solution was then diluted with 4.8 ml of water to yield a solution having a concentration of 400 mg/L. Doubling dilutions of this stock were prepared to give a range of concentrations from 1.6-200 mg/L. 100 μl of each concentration were then placed in the wells of the microtitre plate containing the inoculum, to produce a final concentration range of 0.8-100 mg/l. Metronidazole was employed as a positive control and a solvent/water mixture was employed as a negative control. After addition of the test solution the final inoculum level was 10^5 cells/ml. The plates were incubated for 48 hours at 37° C. in the anaerobic chamber. The Minimum Inhibitory Concentration (MIC) was read visually. The MIC is defined as the lowest concentration at which there is no detectable growth. The Minimum Bactericidal Concentration (MBC) was determined by taking a 50 μl aliquot from each well and placing it in fresh medium. […] The strains of Bacteroides fragilis utilized in the above procedure are identified by letter in accordance with the following legend: |D B. fragilis MZ-R ATCC 11295

[5] = test system: Peptostreptococcus anaerobicus ATCC 27337; experiment: anti-anaerobic activity, MIC (procedures of Example 13); type: cell-based; conditions: Peptostreptococcus, ATCC27337
[6] = test system: Fusobacterium necrophorum ATCC 11295; experiment: as above; type: cell-based; conditions: ATCC11295, procedures of Example 13 (there mg/L)
[7] = test system: Clostridium perfringens NCTC 8237; experiment: microbe, parasite or virus in culture; type: cell-based; conditions: NCTC8237
[8] = test system: Propionibacterium acnes NCTC 737; experiment: anti-anaerobic activity, MIC (procedures of Example 13); type: cell-based; conditions: Cutibacterium acnes, NCTC737, procedures of Example 13 (there mg/L)
[9] = test system: B. fragilis NCTC 9343; experiment: anti-anaerobic activity, MIC/MBC in 96 well microtitre plates, strain B; type: cell-based, Bacteroides fragilis; conditions: for MBC: 99.9% reduction in viable count after 48 hours
[10] = test system: B. fragilis NCTC 10581; experiment: anti-anaerobic activity, MIC/MBC in 96 well microtitre plates, strain A; type: cell-based, Bacteroides fragilis; conditions: for MBC: read-out: MBC (Minimum Bactericidal Concentration)
[11] = test system: B. fragilis NCTC 9344; experiment: anti-anaerobic activity, MIC/MBC in 96 well microtitre plates, strain C; type: cell-based, Bacteroides fragilis; conditions: for MBC: read-out: MBC (Minimum Bactericidal Concentration)
[12] = test system: Clostridium perfringens NCTC 523; experiment: microbe, parasite or virus in culture; type: cell-based; conditions: NCTC523
[13] = test system: B. fragilis WS-1; experiment: anti-anaerobic activity, MIC/MBC in 96 well microtitre plates, strain E; type: cell-based; conditions: Bacteroides fragilis, 99.9% reduction in viable count after 48 hours
[14] = test system: Campylobacter fetus ATCC 29428; experiment: anti-anaerobic activity, MIC (procedures of Example 13); type: cell-based; conditions: ATCC29428, procedures of Example 13 (there mg/L)

Cc1ncc([N+](=O)[O-])n1CCO [Metronidazole, reference compound]
6.2 µg/mL: MBC ([4]; Bacteroides fragilis, ATCC11295, 48 h, 99.9% reduction in viable count after 48 hours, read-out: MBC (Minimum Bactericidal Concentration)) | MIC ([4]; Bacteroides fragilis, ATCC11295, 48 h, 48 hours at 37° C., anaerobic chamber, 10^5 cells/ml, read-out: MIC (Minimum Inhibitory Concentration)) | MIC [6]
10.0 µg/mL: MBC (Minimum Bactericidal Concentration) ([4]; 99.9% reduction in viable count after 48 hours) | MIC (Minimum Inhibitory Concentration) ([4]; 48 hours at 37° C., anaerobic chamber, 10^5 cells/ml)
0.6 µg/mL and 1.2 µg/mL: MIC (Minimum Inhibitory Concentration) ([11]; strain C, 48 hours at 37° C., anaerobic chamber, 10^5 cells/ml)
> 100 µg/mL: MIC [1] | MIC [8] | MIC [14]
1.5 µg/mL: MIC [2] | MBC ([13]; WS1, strain E, read-out: MBC (Minimum Bactericidal Concentration))
1.2 µg/mL: MBC ([9]; Bacteroides fragilis, NCTC9343, 48 h, read-out: MBC (Minimum Bactericidal Concentration), strain B) | MBC ([10]; Bacteroides fragilis, NCTC10581, 48 h) | MBC ([11]; Bacteroides fragilis, NCTC9344, 48 h) | MBC ([13]; WS1, 48 h, read-out: MBC (Minimum Bactericidal Concentration), strain E)
0.6 µg/mL: MBC (Minimum Bactericidal Concentration) ([10]; strain A, 99.9% reduction in viable count after 48 hours) | MIC (Minimum Inhibitory Concentration) ([10]; strain A, 48 hours at 37° C., anaerobic chamber, 10^5 cells/ml) | MBC (Minimum Bactericidal Concentration) ([11]; strain C, 99.9% reduction in viable count after 48 hours)
1.2 µg/mL and 0.6 µg/mL: MIC (Minimum Inhibitory Concentration) ([9]; strain B, 48 hours at 37° C., anaerobic chamber, 10^5 cells/ml)
0.8 µg/mL: MIC [3] | MIC [5] | MIC [7] | MIC ([9]; Bacteroides fragilis, NCTC9343, 48 h, strain B, 48 hours at 37° C., anaerobic chamber, 10^5 cells/ml, read-out: MIC (Minimum Inhibitory Concentration)) | MBC ([9]; Bacteroides fragilis, NCTC9343, strain B, read-out: MBC (Minimum Bactericidal Concentration)) | MBC ([10]; Bacteroides fragilis, NCTC10581, 48 h, strain A, 99.9% reduction in viable count after 48 hours) | MIC ([10]; Bacteroides fragilis, NCTC10581, 48 h, strain A, 48 hours at 37° C., anaerobic chamber, 10^5 cells/ml, read-out: MIC (Minimum Inhibitory Concentration)) | MBC ([11]; Bacteroides fragilis, NCTC9344, 48 h, strain C, 99.9% reduction in viable count after 48 hours) | MIC ([11]; Bacteroides fragilis, NCTC9344, 48 h, strain C, 48 hours at 37° C., anaerobic chamber, 10^5 cells/ml, read-out: MIC (Minimum Inhibitory Concentration)) | MIC [12]
